Assay results from patent US20190105367A1, “ANTIMICROBIAL 4-OXOQUINOLIZINES” (Emergent Product Development Gaithersburg Inc., priority 2011, published 2019).

Key:
A. baumannii NCTC 13301 = assay: MIC without and with sub-inhibitory polymyxin B (Example 4); format: cell-based, Acinetobacter baumannii; details: A. baumannii NCTC 13301, 1st experiment
A. baumannii A14 = assay: as above; format: cell-based, Acinetobacter baumannii; details: A. baumannii A14, 2nd experiment
A. baumannii A472 = assay: as above; format: cell-based, Acinetobacter baumannii; details: A. baumannii A472; for MIC: 2nd experiment
A. baumannii ATCC 19606 [1] = assay: Preliminary MBC without and with sub-inhibitory polymyxin B (Example 4); format: cell-based, Acinetobacter baumannii; details: for MBC: 2nd experiment
A. baumannii A387 = assay: MIC without and with sub-inhibitory polymyxin B (Example 4); format: cell-based, Acinetobacter baumannii; details: A. baumannii A387
A. baumannii A489 = assay: as above; format: cell-based, Acinetobacter baumannii; details: A. baumannii A489
A. baumannii ATCC 19606 [2] = assay: as above; format: cell-based, Acinetobacter baumannii; details: A. baumannii ATCC 19606
A. baumannii A473 = assay: as above; format: cell-based, Acinetobacter baumannii; details: A. baumannii A473
[3] = tested on: Acinetobacter sp. (H064200250); assay: as above; format: cell-based
A. baumannii A401 = assay: as above; format: cell-based, Acinetobacter baumannii; details: A baumannii A 401; for MIC: 2nd experiment
[4] = +[…] polymyxin B, 1st experiment
[5] = without polymyxin B, 1st experiment
[6] = +0.06 μg/ml polymyxin B, 1st experiment
[7] = ratio, PB 0.06 μg/ml, 1st experiment
[8] = Acinetobacter spp. H064200250 (OXA51), +[…] PB, 2nd experiment

Polymyxin B [reference compound]
MIC +[…] PB (A. baumannii NCTC 13301; +[…] polymyxin B): 1 mg/L
MIC without PB/MIC + PB (A. baumannii NCTC 13301; ratio, PB […]): 0.5
MIC without PB (A. baumannii NCTC 13301; without polymyxin B): 0.5 mg/L
MIC (A. baumannii A14; +0.06 μg/ml PB): 0.25 mg/L
MIC without PB/MIC + PB (A. baumannii A14; +0.06 μg/ml PB): 1
MIC (A. baumannii A14; without PB): 0.25 mg/L
MIC (A. baumannii A472; +[…] PB): 0.25 mg/L
MIC +[…] PB (A. baumannii A472; [4]): ≤0.125 mg/L
MIC without PB/MIC + PB (A. baumannii A472; ratio, PB […], 1st experiment): ≥4
MIC (A. baumannii A472; without PB): 0.5 mg/L
MIC without PB (A. baumannii A472; [5]): 0.5 mg/L
MBC (A. baumannii ATCC 19606 [1]; A. baumannii ATCC 19606, +0.06 μg/ml PB): 0.25 mg/L
MBC +0.06 μg/ml PB (A. baumannii ATCC 19606 [1]; A. baumannii ATCC 19606, +0.06 μg/ml polymyxin B, 1st experiment): 0.5 mg/L
MBC (A. baumannii ATCC 19606 [1]; A. baumannii ATCC 19606, without PB): 0.5 mg/L
MBC without PB (A. baumannii ATCC 19606 [1]; A. baumannii ATCC 19606, without polymyxin B, 1st experiment): 0.5 mg/L
MIC (A. baumannii A387; +0.06 μg/ml PB, 2nd experiment): ≤ 0.125 mg/L
MIC without PB/MIC + PB (A. baumannii A387; +0.06 μg/ml PB, 2nd experiment): ≥2
MIC read with alamar blue (A. baumannii A387; +0.06 μg/ml PB, value in parentheses, 2nd experiment): 0.25 mg/L
MIC +0.06 μg/ml PB (A. baumannii A387; [6]): 0.25 mg/L
MIC without PB/MIC + PB (A. baumannii A387; [7]): 1
MIC (A. baumannii A387; without PB, 2nd experiment): 0.25 mg/L
MIC without PB (A. baumannii A387; [5]): 0.25 mg/L
MIC (A. baumannii A489; +[…] PB, 2nd experiment): 0.25 mg/L
MIC without PB/MIC + PB (A. baumannii A489; +[…] PB, 2nd experiment): 2
MIC +[…] PB (A. baumannii A489; [4]): 1 mg/L
MIC without PB/MIC + PB (A. baumannii A489; ratio, PB […], 1st experiment): 2
MIC (A. baumannii A489; without PB, 2nd experiment): 0.5 mg/L
MIC without PB (A. baumannii A489; [5]): 2 mg/L
MIC (A. baumannii ATCC 19606 [2]; +0.06 μg/ml PB, 2nd experiment): 0.25 mg/L
MIC without PB/MIC + PB (A. baumannii ATCC 19606 [2]; +0.06 μg/ml PB, 2nd experiment): 2
MIC +0.06 μg/ml PB (A. baumannii ATCC 19606 [2]; [6]): 0.5 mg/L
MIC without PB/MIC + PB (A. baumannii ATCC 19606 [2]; [7]): 1
MIC (A. baumannii ATCC 19606 [2]; without PB, 2nd experiment): 0.5 mg/L
MIC without PB (A. baumannii ATCC 19606 [2]; [5]): 0.5 mg/L
MIC (A. baumannii A473; +0.06 μg/ml PB, 2nd experiment): 0.25 mg/L
MIC without PB/MIC + PB (A. baumannii A473; +0.06 μg/ml PB, 2nd experiment): 1
MIC (A. baumannii A473; without PB, 2nd experiment): 0.25 mg/L
MIC read with alamar blue (A. baumannii A473; without PB, value in parentheses, 2nd experiment): 2 mg/L
MIC without PB (A. baumannii A473; [5]): 1 mg/L
MIC [3, 8]: 0.25 mg/L
MIC without PB/MIC + PB [3, 8]: 1
MIC ([3]; Acinetobacter spp. H064200250 (OXA51), without PB, 2nd experiment): 0.25 mg/L
MIC +[…] PB ([3]; Acinetobacter spp. H064200250, +[…] polymyxin B, 1st experiment): 0.25 mg/L
MIC without PB/MIC + PB ([3]; Acinetobacter spp. H064200250, ratio, PB […], 1st experiment): 2
MIC without PB ([3]; Acinetobacter spp. H064200250, without polymyxin B, 1st experiment): 0.5 mg/L
MIC (A. baumannii A401; +0.06 μg/ml PB): 0.25 mg/L
MIC +0.06 μg/ml PB (A. baumannii A401; [6]): 0.5 mg/L
MIC without PB/MIC + PB (A. baumannii A401; [7]): 2
MIC (A. baumannii A401; without PB): 0.5 mg/L
MIC without PB (A. baumannii A401; [5]): 1 mg/L
